Experiment [1] has as its system S. pneum. 9585. As to the kind of experiment: Minimum Inhibitory Concentration against S. pneum. 9585. It is filed as cell-based. Conditions: Mueller-Hinton Broth, 10^-4 organism dilution, read-out: M.I.C. (Minimum Inhibitory Concentration). An excerpt: (§1) Minimum Inhibitory Concentration Of
(§2) 5-deoxykanamycin A Against Various
(§3) Microorganisms (mcg./ml.)
(§4) ^a = 45% Antibiotic Assay Broth, 50% Mueller-Hinton Broth and 5%
(§5) serum. All others are Mueller-Hinton Broth.
(§6) ^b = 10^-3 Organism dilution. All others are 10^-4 organism

For experiment [2], the system named is S. pyogenes 9604. Description: Minimum Inhibitory Concentration against S. pyogenes 9604. It is filed as cell-based. Conditions: Streptococcus pyogenes, 45% Antibiotic Assay Broth, 50% Mueller-Hinton Broth and 5% serum, 10^-3 organism dilution, read-out: M.I.C. (Minimum Inhibitory Concentration).
From the text: as §1, §2, §3, §4, §5, §6

Experiment [3] concerns S. aureus 9537. As to the kind of experiment: Minimum Inhibitory Concentration against S. aureus 9537. It is filed as cell-based. The conditions noted are these: Staphylococcus aureus, Mueller-Hinton Broth, 10^-4 organism dilution, read-out: M.I.C. (Minimum Inhibitory Concentration).
From the text: as §1, §2, §3, §4, §5, §6

The test system of experiment [4] is S. aureus 9606. As to the kind of experiment: Minimum Inhibitory Concentration against S. aureus 9606. It is filed as cell-based. The conditions noted are these: Staphylococcus aureus, Mueller-Hinton Broth, 10^-4 organism dilution, read-out: M.I.C. (Minimum Inhibitory Concentration).
From the text: as §1, §2, §3, §4, §5, §6

Experiment [5] relates to S. aureus 20240. As to the kind of experiment: Minimum Inhibitory Concentration against S. aureus 20240. It is filed as cell-based. Conditions: Staphylococcus aureus, Mueller-Hinton Broth, 10^-4 organism dilution, read-out: M.I.C. (Minimum Inhibitory Concentration).
From the text: as §1, §2, §3, §4, §5, §6

Experiment [6] deals with E. coli 9632. Description: Minimum Inhibitory Concentration against E. coli 9632. It is filed as cell-based. The conditions noted are these: Escherichia coli, Mueller-Hinton Broth, 10^-3 organism dilution, read-out: M.I.C. (Minimum Inhibitory Concentration).
From the text: as §1, §2, §3, §4, §5, §6

The subject of experiment [7] is E. coli 21218. As to the kind of experiment: Minimum Inhibitory Concentration against E. coli 21218. It is filed as cell-based. The conditions noted are these: Escherichia coli, Mueller-Hinton Broth, 10^-3 organism dilution, read-out: M.I.C. (Minimum Inhibitory Concentration).
From the text: as §1, §2, §3, §4, §5, §6

The subject of experiment [8] is E. coli 20895. Description: Minimum Inhibitory Concentration against E. coli 20895. Conditions: Escherichia coli, Mueller-Hinton Broth, 10^-3 organism dilution, read-out: M.I.C. (Minimum Inhibitory Concentration). It is filed as cell-based.
From the text: as §1, §2, §3, §4, §5, §6

Experiment [9] deals with E. coli 20732. Description: Minimum Inhibitory Concentration against E. coli 20732. It is filed as cell-based. Conditions: Escherichia coli, Mueller-Hinton Broth, 10^-3 organism dilution, read-out: M.I.C. (Minimum Inhibitory Concentration).
From the text: as §1, §2, §3, §4, §5, §6

The subject of experiment [10] is E. coli 20665. Description: Minimum Inhibitory Concentration against E. coli 20665. Conditions: Escherichia coli, Mueller-Hinton Broth, 10^-3 organism dilution, read-out: M.I.C. (Minimum Inhibitory Concentration). It is filed as cell-based.
From the text: as §1, §2, §3, §4, §5, §6

Experiment [11] concerns E. coli 20683. Description: Minimum Inhibitory Concentration against E. coli 20683. It is filed as cell-based. Conditions: Escherichia coli, Mueller-Hinton Broth, 10^-3 organism dilution, read-out: M.I.C. (Minimum Inhibitory Concentration).
From the text: as §1, §2, §3, §4, §5, §6

Experiment [12] relates to E. cloacae 9656. Description: Minimum Inhibitory Concentration against E. cloacae 9656. It is filed as cell-based. The conditions noted are these: Enterobacter cloacae, Mueller-Hinton Broth, 10^-4 organism dilution, read-out: M.I.C. (Minimum Inhibitory Concentration).
From the text: as §1, §2, §3, §4, §5, §6

Experiment [13] has as its system E. cloacae 20364. Description: Minimum Inhibitory Concentration against E. cloacae 20364. It is filed as cell-based. The conditions noted are these: Enterobacter cloacae, Mueller-Hinton Broth, 10^-3 organism dilution, read-out: M.I.C. (Minimum Inhibitory Concentration).
From the text: as §1, §2, §3, §4, §5, §6

Experiment [14] relates to E. cloacae 21006. As to the kind of experiment: Minimum Inhibitory Concentration against E. cloacae 21006. It is filed as cell-based. Conditions: Enterobacter cloacae, Mueller-Hinton Broth, 10^-3 organism dilution, read-out: M.I.C. (Minimum Inhibitory Concentration).
From the text: as §1, §2, §3, §4, §5, §6

Experiment [15] relates to K. pneum. 9977. As to the kind of experiment: Minimum Inhibitory Concentration against K. pneum. 9977. It is filed as cell-based. Conditions: Mueller-Hinton Broth, 10^-4 organism dilution, read-out: M.I.C. (Minimum Inhibitory Concentration).
From the text: as §1, §2, §3, §4, §5, §6

The test system of experiment [16] is P. mirab. 9900. As to the kind of experiment: Minimum Inhibitory Concentration against P. mirab. 9900. Conditions: Mueller-Hinton Broth, 10^-4 organism dilution, read-out: M.I.C. (Minimum Inhibitory Concentration). It is filed as cell-based.
From the text: as §1, §2, §3, §4, §5, §6

The subject of experiment [17] is P. rettgeri 9637. Description: Minimum Inhibitory Concentration against P. rettgeri 9637. It is filed as cell-based. Conditions: Providencia rettgeri, Mueller-Hinton Broth, 10^-4 organism dilution, read-out: M.I.C. (Minimum Inhibitory Concentration).
From the text: as §1, §2, §3, §4, §5, §6

Experiment [18] concerns P. rettgeri 21207. Description: Minimum Inhibitory Concentration against P. rettgeri 21207. It is filed as cell-based. The conditions noted are these: Providencia rettgeri, Mueller-Hinton Broth, 10^-3 organism dilution, read-out: M.I.C. (Minimum Inhibitory Concentration).
From the text: as §1, §2, §3, §4, §5, §6

Experiment [19] concerns P. stuartii 21210. As to the kind of experiment: Minimum Inhibitory Concentration against P. stuartii 21210. The conditions noted are these: Providencia stuartii, Mueller-Hinton Broth, 10^-4 organism dilution, read-out: M.I.C. (Minimum Inhibitory Concentration). It is filed as cell-based.
From the text: as §1, §2, §3, §4, §5, §6

Experiment [20] relates to P. stuartii 20894. As to the kind of experiment: Minimum Inhibitory Concentration against P. stuartii 20894. It is filed as cell-based. Conditions: Providencia stuartii, Mueller-Hinton Broth, 10^-3 organism dilution, read-out: M.I.C. (Minimum Inhibitory Concentration).
From the text: as §1, §2, §3, §4, §5, §6

Experiment [21] concerns S. marc. 20019. Description: Minimum Inhibitory Concentration against S. marc. 20019. The conditions noted are these: Mueller-Hinton Broth, 10^-4 organism dilution, read-out: M.I.C. (Minimum Inhibitory Concentration). It is filed as cell-based.
From the text: as §1, §2, §3, §4, §5, §6

Experiment [22] relates to S. marc. 20460. As to the kind of experiment: Minimum Inhibitory Concentration against S. marc. 20460. It is filed as cell-based. The conditions noted are these: Mueller-Hinton Broth, 10^-4 organism dilution, read-out: M.I.C. (Minimum Inhibitory Concentration).
From the text: as §1, §2, §3, §4, §5, §6

In experiment [23] the test system is P. aerug. 9843A. Description: Minimum Inhibitory Concentration against P. aerug. 9843A. It is filed as cell-based. The conditions noted are these: Mueller-Hinton Broth, 10^-4 organism dilution, read-out: M.I.C. (Minimum Inhibitory Concentration).
From the text: as §1, §2, §3, §4, §5, §6

Experiment [24] concerns P. aerug. 20653. As to the kind of experiment: Minimum Inhibitory Concentration against P. aerug. 20653. Conditions: Mueller-Hinton Broth, 10^-4 organism dilution, read-out: M.I.C. (Minimum Inhibitory Concentration). It is filed as cell-based.
From the text: as §1, §2, §3, §4, §5, §6

For experiment [25], the system named is P. aerug. 20741. Description: Minimum Inhibitory Concentration against P. aerug. 20741. It is filed as cell-based. Conditions: Mueller-Hinton Broth, 10^-4 organism dilution, read-out: M.I.C. (Minimum Inhibitory Concentration).
From the text: as §1, §2, §3, §4, §5, §6

The subject of experiment [26] is P. aerug. 20717. Description: Minimum Inhibitory Concentration against P. aerug. 20717. It is filed as cell-based. The conditions noted are these: Mueller-Hinton Broth, 10^-4 organism dilution, read-out: M.I.C. (Minimum Inhibitory Concentration).
From the text: as §1, §2, §3, §4, §5, §6

The test system of experiment [27] is P. aerug. 20601. As to the kind of experiment: Minimum Inhibitory Concentration against P. aerug. 20601. It is filed as cell-based. The conditions noted are these: Mueller-Hinton Broth, 10^-4 organism dilution, read-out: M.I.C. (Minimum Inhibitory Concentration).
From the text: as §1, §2, §3, §4, §5, §6

For experiment [28], the system named is P. aerug. 21509. Description: Minimum Inhibitory Concentration against P. aerug. 21509. It is filed as cell-based. The conditions noted are these: Mueller-Hinton Broth, 10^-4 organism dilution, read-out: M.I.C. (Minimum Inhibitory Concentration).
From the text: as §1, §2, §3, §4, §5, §6

For experiment [29] the following is noted: background statement on positional isomers; cited from earlier work.

Each structure is given as a SMILES string. Converted amounts (≈) assume the structure as drawn.

Consider `NC[C@H]1O[C@H](O[C@H]2C[C@@H](O[C@H]3O[C@H](CO)[C@@H](O)[C@H](N)[C@H]3O)[C@H](N)C[C@@H]2N)[C@H](O)[C@@H](O)[C@@H]1O` [5-deoxykanamycin A, 5-Deoxykanamycin A], for which the MIC in experiment [1] is 125 µg/mL (≈ 267 µM); in experiment [2] it was 125 µg/mL (≈ 267 µM); in experiment [3], 2 µg/mL (≈ 4.27 µM); in experiment [4] it was 4 µg/mL (≈ 8.54 µM); in experiment [5], more than 125 µg/mL; in experiment [6], 8 µg/mL (≈ 17.1 µM). Also, the MIC in experiment [7] was more than 125 µg/mL; in experiment [8] it was 8 µg/mL (≈ 17.1 µM); in experiment [9], 125 µg/mL (≈ 267 µM); in [10], more than 125 µg/mL; in experiment [11], more than 125 µg/mL; in experiment [12], 8 µg/mL (≈ 17.1 µM). For the same compound, the MIC in experiment [13] was more than 125 µg/mL; in experiment [14], more than 125 µg/mL; in [15] it was 1 µg/mL (≈ 2.13 µM); in [16] it was 32 µg/mL (≈ 68.3 µM); in experiment [17], 1 µg/mL (≈ 2.13 µM); in experiment [18], 16 µg/mL (≈ 34.2 µM). The MIC in [19] is 4 µg/mL (≈ 8.54 µM); in experiment [20], 32 µg/mL (≈ 68.3 µM); in experiment [21], 32 µg/mL (≈ 68.3 µM); in experiment [22], more than 125 µg/mL; in experiment [23], more than 125 µg/mL; in experiment [24] it was more than 125 µg/mL. Further, the MIC in experiment [25], in experiment [26], in experiment [27] and in experiment [28] was more than 125 µg/mL in each case.

For `NC[C@H]1O[C@H](O[C@H]2[C@H](O)[C@@H](O)[C@H](N)C[C@@H]2N)[C@H](N)[C@@H](O)[C@@H]1O` [neamine, 4-0-(2,6-dideoxy-2,6-diamino-α-D-glycopynanosyl) 2-deoxystreptamine], in experiment [29], the antibiotic activity entry was “biologically active”.

(Values after US4101556A, “Total synthesis of 2,5-dideoxystreptamines” (Bristol-Myers Company, priority 1977, dated 1978).)
